Activity calls are given as the source filed them. No rule for the calls is given here.
Target: Aryl hydrocarbon receptor (Homo sapiens) (UniProt P35869)
Assay: AHR activator potency, dose response, cell-based, luminescence, luciferase reporter, human (AID 493060)
Details: Human cell line AHR-responsive luciferase reporter

Aryl hydrocarbon receptor (Homo sapiens), sequence (P35869 whole entry, looked up): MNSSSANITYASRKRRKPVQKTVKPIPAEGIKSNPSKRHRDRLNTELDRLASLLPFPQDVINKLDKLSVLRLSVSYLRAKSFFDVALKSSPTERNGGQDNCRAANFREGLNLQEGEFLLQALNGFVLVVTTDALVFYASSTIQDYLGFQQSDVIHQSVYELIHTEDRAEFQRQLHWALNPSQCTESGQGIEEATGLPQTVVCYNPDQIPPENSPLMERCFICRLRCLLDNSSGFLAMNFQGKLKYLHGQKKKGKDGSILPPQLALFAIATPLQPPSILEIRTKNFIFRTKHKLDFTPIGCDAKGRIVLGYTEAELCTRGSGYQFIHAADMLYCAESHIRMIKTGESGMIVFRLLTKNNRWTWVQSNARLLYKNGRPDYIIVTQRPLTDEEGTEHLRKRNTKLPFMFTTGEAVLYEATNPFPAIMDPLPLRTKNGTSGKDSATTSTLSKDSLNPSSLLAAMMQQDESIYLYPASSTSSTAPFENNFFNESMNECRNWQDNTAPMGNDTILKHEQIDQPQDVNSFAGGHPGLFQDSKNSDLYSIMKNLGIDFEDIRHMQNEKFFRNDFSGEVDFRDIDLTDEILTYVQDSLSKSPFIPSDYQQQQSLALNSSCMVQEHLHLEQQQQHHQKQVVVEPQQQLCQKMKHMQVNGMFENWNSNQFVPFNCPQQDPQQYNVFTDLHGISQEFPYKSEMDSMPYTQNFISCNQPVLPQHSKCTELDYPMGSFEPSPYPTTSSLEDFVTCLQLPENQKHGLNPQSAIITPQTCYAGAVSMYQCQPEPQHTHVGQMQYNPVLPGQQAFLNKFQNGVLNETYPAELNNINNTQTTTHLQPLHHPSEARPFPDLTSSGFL

For `CN(C)c1nc(N)nc(-c2nc3ccccc3s2)n1`, the EC50 was 3330 nM.

In the case of `O=C(Nc1ccon1)c1cnc2sccn2c1=O`, the EC50 is reported as “inactive”.

`COc1cc2c(cc1NC(=O)Nc1ccc(C)cc1)oc1ccccc12` was tested, and the EC50 was 889 nM.

With `Cc1nc(N)nc(Nc2ccc(Cl)cc2)c1Br` the EC50 was 1400 nM.

`Cc1csc(SCC(=O)Nc2ccc(Cl)cn2)n1` showed an EC50 of 683 nM.

`COC(=O)c1ccccc1NC(=O)Cn1ccnc1` showed an EC50 of 2570 nM.

`COc1cc2ccccc2cc1C(=O)Nc1ccc(C)cc1` was tested, and the EC50 was 747 nM.

Compound `Cn1c(N)c(C(=O)Nc2ccccc2F)sc1=S` has an EC50 of 767 nM.

In the case of `Cc1c(-c2ccn[nH]2)cc(NC(=O)c2ccc(Cl)cc2)c(=O)n1N`, the EC50 is reported as 513 nM.

`COc1ccc(NC(=O)c2cccc3c(Br)cccc23)cc1` was tested, and the EC50 was 1860 nM.

For `CCC(=O)Nc1cc(OC)c(NC(=O)c2ccccc2)cc1OC`, the EC50 was 2490 nM.

In the case of `COc1ccccc1C(=O)Nc1ccc(N2CCCCC2)cc1`, the EC50 is reported as 2980 nM.

`COc1ccc(Cl)cc1C(=O)Nc1ccc(N(C)C(C)=O)cc1` showed an EC50 of 2410 nM.

Compound `CCOc1ccc(NC(=O)c2cc3ccccc3cc2OC)cc1` has an EC50 of 1780 nM.

With `Cc1ccc(Nc2ncccc2C(N)=O)cc1` the EC50 was 1130 nM.

In the case of `CC(=O)c1ccc(NC(=O)c2cc(Cl)nc3ccccc23)cc1`, the EC50 is reported as 968 nM.

Work on `COc1ccccc1NC(=O)Nc1cccnc1` yielded an EC50 of 1470 nM.

Work on `Cc1ccc(-c2cc(-c3cccs3)[nH]n2)c(O)c1` yielded an EC50 of 853 nM.

With `CCOC(=O)Cc1cc(-c2ccc(O)cc2)nc2ccc3ccccc3c12` the EC50 was 1080 nM.

Work on `CCOc1ccccc1NC(=O)c1ccc2nccnc2c1` yielded an EC50 of 2840 nM.

In the case of `CN1CCN(CCCNC(=O)c2cc3c(-c4ccc(Cl)cc4)nn(C)c3s2)CC1`, the EC50 is reported as 282 nM.

`COc1ccc(C(=O)Nc2cc(OC)c(NC(=O)c3ccco3)cc2OC)cc1` gave an EC50 of 1620 nM.

`CCOc1ccc(-c2cc(C)n3nc(C(N)=O)cc3n2)cc1` gave an EC50 of 1340 nM.

Compound `Cn1c(C(=O)N2CCC(C(N)=O)CC2)cc2cc(Cl)ccc21` has an EC50 of 260 nM.

`Cc1ccccc1-c1nc(-c2cccnc2)no1` was tested, and the EC50 was 1330 nM.

For `COc1ccccc1NC(=O)c1ccc2c(c1)nnn2C`, the EC50 was 139 nM.

`CCCC(=O)Nc1nn(C)c2nc3cc(C)ccc3cc12` was tested, and the EC50 was 250 nM.

Work on `O=C1c2ccccc2-c2nc3ccccc3nc21` yielded an EC50 of 3240 nM.

In the case of `O=C(CN1CCOCC1)Nc1nc2ccc([N+](=O)[O-])cc2s1`, the EC50 is reported as 6250 nM.

Work on `Cc1cc(Nc2ccc(Br)cc2)n2nc(C)nc2n1` yielded an EC50 of 217 nM.
